# Assays:
# [1] = biological target: Ba/F3 cells transformed with Tel-KDR (Homo sapiens, UniProt P35968); settings: read-out: IC50 in BaF3/Tel-KDR cellular assay
# Experimental: (§1) Luciferase expressing Ba/F3 murine pro-B cells are transformed with Tel-Syk, Tel-Zap70 or Tel-KDR. Cells are maintained in RPMI/10% fetal calf serum (RPMI/FCS) supplemented with penicillin 50 μg/mL, streptomycin 50 μg/mL and L-glutamine 200 mM. Untransformed Ba/F3 cells are similarly maintained with the addition of murine recombinant IL3. Cells are dispensed into 384-well format plate at 5000 cell/well in 50 μL of culture medium. Compounds of the invention are dissolved and diluted in dimethylsufoxide (DMSO). Twelve points 1:3 serial dilutions are made into DMSO to create concentrations gradient ranging from 10 mM to 0.05 μM. Cells are added with 50 nL of diluted compounds and incubated for 48 hours in cell culture incubator. Luminiscent signal is measured following the addition of Bright Glo® (Promega) luciferase substrate. IC50 values are calculated by linear regression analysis of the percentage inhibition of each compound at 12 concentrations.
# (§2) Compounds of the invention are tested for their antiproliferative effect on Ba/F3 cells expressing either Tel-TrkA, Tel-TrkB or Tel-TrkC and an additional panel of 34 selected diverse kinases activated by fusion to the dimerizing partners Bcr or Tel (Abl, AlK, BMX, EphA3, EphB2, FGFR2, FGFR3, FGFR4, FGR, FLT1, FLT3, FLT4, FMS, IGF1R, InsR, JAK1, JAK2, JAK3, KDR, Kit, Lck, Lyn, MER, MET, PDGFRb, RET, RON, Ros-1, Src, Syk, TIE2, TYK2, Tie1, ZAP70). The antiproliferative effect of these compounds on the different cell lines and on the non transformed cells were tested at 12 different concentrations of 3-fold serially diluted compounds in 384 well plates as described above (in media lacking IL3). The IC50 values of the compounds the different cell lines were determined from the dose response curves obtained as describe above.
# [2] = biological target: Ba/F3 cells transformed with Tel-Syk (Homo sapiens, UniProt P43405); settings: read-out: IC50 in BaF3/Tel-Syk cellular assay
# Experimental: as §1, §2
# [3] = biological target: TRKA (Homo sapiens (Human), UniProt P04629); test: Caliper LabChip mobility-shift kinase assay, single point; format: biochemical; settings: at a concentration of 5 μM
# Experimental: (§3) In addition, compounds of Formula (I) were assessed for their ability to inhibit individual kinases utilizing Caliper Life Sciences' proprietary LabChip™ technology. A partial, non-limiting list of kinases includes: Syk, ZAP70, KDR, FMS, FLT3, c-Kit, RET, TrkA, TrkB, TrkC, IGR-1R, Alk and c-FMS kinases. The off-chip incubation mobility-shift kinase assay uses a microfluidic chip to measure the conversion of a fluorescent peptide substrate to a phosphorylated product. The reaction mixture, from a microtiter plate well, is introduced through a capillary sipper onto the chip, where the nonphosphorylated substrate and phosphorylated product are separated by electrophoresis and detected via laser induced fluorescence. […] The phosphorylated product migrates through the chip faster than the non-phosphorylated substrate, and signals from the two forms of the peptide appear as distinct peaks. Caliper's data analysis software (HTSWA) determines peak heights, from which the ratio of product to the peak sum P/(P+S) and percent (%) conversion is calculated. This value is used to compare compound wells to control wells present on the plate, and thereby determine the % inhibition values for the compound.
# (§4) Generally, 12 μL of enzyme buffer containing purified kinase (various amount; various suppliers), 100 mM HEPES, pH 7.5, 1 mM DTT (Calbiochem, 2333153), 10 mM MgCl2 (Sigma, M-1028) or 10 mM MnCl2 (Sigma, M-1787) (assay specific), and 0.002% Brij-35 (Sigma, B4184) are added to each well. Compound and enzyme are allowed to pre-incubate for 15 minutes. 12 μL of peptide/ATP buffer containing 100 mM HEPES, pH 7.5, 1.5 μM fluorescein-labeled peptide (specific to kinase of interest), ATP (at KM apparent, Sigma, A9187), and 0.002% Brij-35 is then added to each well to initiate the reaction. The final concentration of DMSO in the well is 4%. Generally, reactions are incubated for 1 to 1.5 hours at room temperature to obtain adequate conversion of peptide to phosphorylated product in the linear range of the reaction. Reactions are terminated with the addition of 45 μL of Stop Buffer (containing 20 mM EDTA). Plates are then read on the LabChip 3000 using a 12-sipper LabChip. % conversion values and % inhibition values are obtained as described and IC50 curves of compounds are generated using GraphPad Prism Version 4 or 5.01, or XLfit Version 4.3.2. When using GraphPad Prism, a nonlinear curve fit using the sigmoidal dose response—variable slope fit was used to graph IC50 curves and determine IC50 values and hillslopes. When using XLfit, Fit Model 205 (4-Parameter Logistic Model) is used to generate and fit the IC50 curve.
# [4] = biological target: RET (Homo sapiens (Human), UniProt P07949); test: as above; format: biochemical; settings: at a concentration of 5 μM
# Chain of RET (P07949 29-1114, species assumed): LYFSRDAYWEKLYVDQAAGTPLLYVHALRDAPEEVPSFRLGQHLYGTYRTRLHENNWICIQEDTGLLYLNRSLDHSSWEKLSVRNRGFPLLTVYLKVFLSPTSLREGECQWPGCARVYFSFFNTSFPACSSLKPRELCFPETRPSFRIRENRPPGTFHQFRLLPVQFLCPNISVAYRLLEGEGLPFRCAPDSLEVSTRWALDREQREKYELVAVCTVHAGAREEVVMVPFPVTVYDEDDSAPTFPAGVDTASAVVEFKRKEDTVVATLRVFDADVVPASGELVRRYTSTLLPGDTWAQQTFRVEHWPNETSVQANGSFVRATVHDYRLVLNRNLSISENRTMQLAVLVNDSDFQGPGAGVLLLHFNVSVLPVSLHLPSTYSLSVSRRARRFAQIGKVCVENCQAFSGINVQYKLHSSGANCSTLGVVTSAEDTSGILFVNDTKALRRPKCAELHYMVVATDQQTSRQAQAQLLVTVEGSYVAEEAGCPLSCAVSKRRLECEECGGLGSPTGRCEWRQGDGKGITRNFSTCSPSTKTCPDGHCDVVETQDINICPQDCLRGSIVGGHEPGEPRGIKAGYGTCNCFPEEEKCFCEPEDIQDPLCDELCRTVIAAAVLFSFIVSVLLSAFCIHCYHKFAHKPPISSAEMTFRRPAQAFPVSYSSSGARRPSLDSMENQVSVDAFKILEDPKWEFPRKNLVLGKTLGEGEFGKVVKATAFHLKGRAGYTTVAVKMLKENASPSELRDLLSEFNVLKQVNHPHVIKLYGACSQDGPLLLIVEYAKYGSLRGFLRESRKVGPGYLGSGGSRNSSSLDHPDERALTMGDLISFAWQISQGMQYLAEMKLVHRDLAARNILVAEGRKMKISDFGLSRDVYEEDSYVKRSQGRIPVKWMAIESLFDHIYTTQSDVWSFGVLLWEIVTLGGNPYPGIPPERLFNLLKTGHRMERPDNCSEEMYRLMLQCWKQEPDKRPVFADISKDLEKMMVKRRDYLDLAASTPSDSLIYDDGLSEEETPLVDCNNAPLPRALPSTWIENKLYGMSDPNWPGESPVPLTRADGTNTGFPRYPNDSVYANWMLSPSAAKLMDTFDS
# Experimental: as §3, §4
# [5] = biological target: KDR (Homo sapiens (Human), UniProt P35968); test: as above; format: biochemical; settings: at a concentration of 5 μM
# Experimental: as §3, §4
# [6] = biological target: Abl (Homo sapiens (Human), UniProt P00519); test: as above; format: biochemical; settings: at a concentration of 5 μM
# Experimental: as §3, §4
# [7] = biological target: JAK2 (Homo sapiens (Human), UniProt O60674); test: as above; format: biochemical; settings: at a concentration of 5 μM
# Experimental: as §3, §4
# [8] = biological target: FMS (Homo sapiens (Human), UniProt P07333); test: as above; format: biochemical; settings: at a concentration of 5 μM
# Experimental: as §3, §4
# [9] = biological target: CHK2 (Homo sapiens (Human), UniProt O96017); test: as above; format: biochemical; settings: at a concentration of 5 μM
# Experimental: as §3, §4
# [10] = biological target: FLT3 (Homo sapiens (Human), UniProt P36888); test: as above; format: biochemical; settings: at a concentration of 5 μM
# Experimental: as §3, §4
# [11] = biological target: Ba/F3 cells transformed with Tel c-Kit (Homo sapiens, UniProt P10721); settings: read-out: IC50 in BaF3/Tel-KIT cellular assay
# Chain of Ba/F3 cells transformed with Tel c-Kit (P10721 26-976 limits assumed, change not shown): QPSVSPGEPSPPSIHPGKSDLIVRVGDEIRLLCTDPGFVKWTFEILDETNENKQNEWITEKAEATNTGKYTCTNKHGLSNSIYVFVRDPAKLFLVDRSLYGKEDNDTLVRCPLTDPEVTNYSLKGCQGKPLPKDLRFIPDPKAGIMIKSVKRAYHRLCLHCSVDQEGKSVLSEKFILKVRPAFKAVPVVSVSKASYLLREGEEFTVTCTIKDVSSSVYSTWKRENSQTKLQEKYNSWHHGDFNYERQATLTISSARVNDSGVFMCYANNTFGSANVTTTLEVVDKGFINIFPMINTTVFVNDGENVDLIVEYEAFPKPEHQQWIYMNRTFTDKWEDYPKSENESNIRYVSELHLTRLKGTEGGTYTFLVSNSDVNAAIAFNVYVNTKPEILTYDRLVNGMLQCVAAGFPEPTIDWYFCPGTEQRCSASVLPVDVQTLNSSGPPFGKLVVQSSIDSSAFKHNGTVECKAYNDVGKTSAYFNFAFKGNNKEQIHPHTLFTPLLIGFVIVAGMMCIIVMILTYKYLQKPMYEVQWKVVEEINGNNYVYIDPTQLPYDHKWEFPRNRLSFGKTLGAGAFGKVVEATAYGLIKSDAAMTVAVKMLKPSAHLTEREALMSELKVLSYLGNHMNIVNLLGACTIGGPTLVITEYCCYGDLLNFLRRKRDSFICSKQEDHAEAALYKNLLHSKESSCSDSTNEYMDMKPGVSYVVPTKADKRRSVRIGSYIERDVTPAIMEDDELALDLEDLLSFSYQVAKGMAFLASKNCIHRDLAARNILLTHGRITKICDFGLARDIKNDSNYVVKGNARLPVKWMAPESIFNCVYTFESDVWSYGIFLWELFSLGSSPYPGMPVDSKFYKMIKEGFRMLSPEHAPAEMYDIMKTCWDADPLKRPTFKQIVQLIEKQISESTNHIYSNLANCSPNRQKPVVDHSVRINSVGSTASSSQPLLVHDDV
# Experimental: as §2
# [12] = biological target: Ba/F3 cells expressing Tel-FMS (Homo sapiens, UniProt P07333); settings: read-out: IC50 in BaF3/Tel-FMS cellular assay
# Chain of Ba/F3 cells expressing Tel-FMS (P07333 20-972 limits assumed, change not shown): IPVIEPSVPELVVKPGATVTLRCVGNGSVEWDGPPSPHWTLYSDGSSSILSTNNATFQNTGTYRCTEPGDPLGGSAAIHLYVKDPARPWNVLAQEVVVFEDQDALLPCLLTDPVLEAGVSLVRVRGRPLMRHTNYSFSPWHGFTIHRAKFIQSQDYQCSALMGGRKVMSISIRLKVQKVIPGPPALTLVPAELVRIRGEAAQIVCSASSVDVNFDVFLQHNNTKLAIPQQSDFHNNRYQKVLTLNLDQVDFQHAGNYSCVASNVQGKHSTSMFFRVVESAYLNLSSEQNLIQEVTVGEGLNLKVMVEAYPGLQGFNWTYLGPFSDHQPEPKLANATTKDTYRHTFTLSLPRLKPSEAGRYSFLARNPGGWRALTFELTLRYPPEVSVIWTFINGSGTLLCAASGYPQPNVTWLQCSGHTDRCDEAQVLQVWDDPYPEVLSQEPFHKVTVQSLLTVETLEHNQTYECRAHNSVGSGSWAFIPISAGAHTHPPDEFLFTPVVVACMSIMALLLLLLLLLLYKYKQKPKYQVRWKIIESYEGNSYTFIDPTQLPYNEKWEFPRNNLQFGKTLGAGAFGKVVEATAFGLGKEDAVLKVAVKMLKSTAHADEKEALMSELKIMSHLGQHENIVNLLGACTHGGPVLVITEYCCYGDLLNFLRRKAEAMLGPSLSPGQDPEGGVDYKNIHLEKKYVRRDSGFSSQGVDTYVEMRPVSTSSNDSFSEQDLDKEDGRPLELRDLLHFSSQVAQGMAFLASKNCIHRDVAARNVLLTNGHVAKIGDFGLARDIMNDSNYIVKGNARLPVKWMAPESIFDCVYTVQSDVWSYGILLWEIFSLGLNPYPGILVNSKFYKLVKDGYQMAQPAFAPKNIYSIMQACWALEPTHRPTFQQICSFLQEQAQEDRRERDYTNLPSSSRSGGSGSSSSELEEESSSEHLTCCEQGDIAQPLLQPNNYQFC
# Experimental: as §2
# [13] = biological target: Ba/F3 cells transformed with human Tel-TrkA (Homo sapiens, UniProt P04629); settings: read-out: IC50 in BaF3/Tel-TRKA cellular assay
# Chain of Ba/F3 cells transformed with human Tel-TrkA (P04629 33-796 limits assumed, change not shown): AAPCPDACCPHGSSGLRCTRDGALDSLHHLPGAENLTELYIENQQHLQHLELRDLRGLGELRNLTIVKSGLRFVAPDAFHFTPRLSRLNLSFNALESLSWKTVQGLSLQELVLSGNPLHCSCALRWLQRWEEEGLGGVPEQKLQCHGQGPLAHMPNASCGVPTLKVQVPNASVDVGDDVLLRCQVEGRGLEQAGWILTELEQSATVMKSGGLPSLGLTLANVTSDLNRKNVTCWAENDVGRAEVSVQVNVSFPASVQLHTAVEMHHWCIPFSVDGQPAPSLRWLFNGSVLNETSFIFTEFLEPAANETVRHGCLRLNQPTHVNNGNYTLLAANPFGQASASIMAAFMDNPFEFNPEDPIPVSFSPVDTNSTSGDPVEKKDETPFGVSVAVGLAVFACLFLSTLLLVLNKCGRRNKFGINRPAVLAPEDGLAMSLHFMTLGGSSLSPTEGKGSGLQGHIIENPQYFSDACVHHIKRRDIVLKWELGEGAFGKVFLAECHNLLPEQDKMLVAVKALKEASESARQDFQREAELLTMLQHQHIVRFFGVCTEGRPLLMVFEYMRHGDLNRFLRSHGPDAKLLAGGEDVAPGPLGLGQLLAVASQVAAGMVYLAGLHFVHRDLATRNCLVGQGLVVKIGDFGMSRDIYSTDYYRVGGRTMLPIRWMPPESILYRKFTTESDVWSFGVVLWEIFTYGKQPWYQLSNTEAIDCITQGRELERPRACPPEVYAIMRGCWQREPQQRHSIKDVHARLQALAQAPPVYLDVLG
# Experimental: as §2
# [14] = biological target: Ba/F3 cells expressing Tel-FLT3 (Homo sapiens, UniProt P36888); settings: read-out: IC50 in BaF3/Tel-FLT3 cellular assay
# Experimental: as §2
# Chain of Ba/F3 cells transformed with Tel-KDR (P35968 20-1356 limits assumed, change not shown): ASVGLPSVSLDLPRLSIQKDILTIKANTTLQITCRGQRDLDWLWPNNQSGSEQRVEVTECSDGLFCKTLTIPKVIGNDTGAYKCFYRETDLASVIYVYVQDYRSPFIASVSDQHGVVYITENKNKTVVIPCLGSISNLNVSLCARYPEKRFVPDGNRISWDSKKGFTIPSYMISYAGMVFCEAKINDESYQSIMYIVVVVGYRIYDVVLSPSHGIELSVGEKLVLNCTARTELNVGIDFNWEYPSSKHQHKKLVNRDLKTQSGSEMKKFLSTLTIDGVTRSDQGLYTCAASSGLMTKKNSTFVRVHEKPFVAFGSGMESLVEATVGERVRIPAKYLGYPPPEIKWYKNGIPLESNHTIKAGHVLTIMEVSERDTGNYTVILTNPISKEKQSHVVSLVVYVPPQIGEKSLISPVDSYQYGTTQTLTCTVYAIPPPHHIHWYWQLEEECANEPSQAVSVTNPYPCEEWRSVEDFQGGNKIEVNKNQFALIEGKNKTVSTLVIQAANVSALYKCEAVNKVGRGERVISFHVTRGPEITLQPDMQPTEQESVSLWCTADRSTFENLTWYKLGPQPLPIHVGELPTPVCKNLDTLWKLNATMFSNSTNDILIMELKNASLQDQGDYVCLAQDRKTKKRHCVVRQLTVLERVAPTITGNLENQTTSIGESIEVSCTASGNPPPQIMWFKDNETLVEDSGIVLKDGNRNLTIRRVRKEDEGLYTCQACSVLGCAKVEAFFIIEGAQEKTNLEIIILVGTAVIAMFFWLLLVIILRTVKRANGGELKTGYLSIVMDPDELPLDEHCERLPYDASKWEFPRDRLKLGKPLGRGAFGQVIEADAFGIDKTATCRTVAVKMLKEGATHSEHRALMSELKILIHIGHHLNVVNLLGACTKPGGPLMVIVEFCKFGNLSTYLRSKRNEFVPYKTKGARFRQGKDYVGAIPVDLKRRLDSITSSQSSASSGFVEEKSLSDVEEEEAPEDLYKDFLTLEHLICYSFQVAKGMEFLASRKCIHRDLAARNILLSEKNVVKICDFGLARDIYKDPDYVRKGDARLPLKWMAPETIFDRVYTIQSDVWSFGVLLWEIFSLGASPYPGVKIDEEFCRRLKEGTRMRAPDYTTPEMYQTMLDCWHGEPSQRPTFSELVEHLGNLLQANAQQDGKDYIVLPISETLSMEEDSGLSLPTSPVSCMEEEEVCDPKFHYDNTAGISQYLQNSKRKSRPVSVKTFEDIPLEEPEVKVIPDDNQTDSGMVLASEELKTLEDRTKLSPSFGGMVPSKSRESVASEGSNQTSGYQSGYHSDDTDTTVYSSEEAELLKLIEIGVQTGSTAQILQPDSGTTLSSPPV
SMILES,IC50 [1] [nM],IC50 [2] [nM],inhibition at 5 µM [3] [%],inhibition at 5 µM [4] [%],inhibition at 5 µM [5] [%],inhibition at 5 µM [6] [%],inhibition at 5 µM [7] [%],inhibition at 5 µM [8] [%],inhibition at 5 µM [9] [%],inhibition at 5 µM [10] [%],IC50 [11] [nM],IC50 [12] [nM],IC50 [13] [nM],IC50 [14] [nM]
"O=c1[nH]ccc2cc(-c3ccccc3)nc(Nc3ccc(N4CCOCC4)cc3)c12 [No 11, 8-(4-morpholinophenylamino)-6-phenyl-2,7-naphthyridin-1(2H)-one]",270,150,74,99,96,100,96,84,94,100,20,20,70,–
"CCN1CCN(c2cc3cc[nH]c(=O)c3c(Nc3ccc(N4CCOCC4)cc3)n2)CC1 [No 83, 8-(4-morpholinophenylamino)-6-(4-ethylpiperazin-1-yl)-2,7-naphthyridin-1(2H)-one]",5000,120,–,–,–,–,–,–,–,–,1220,500,490,530

# — US8546370B2, “Compounds and compositions as kinase inhibitors” (IRM LLC, priority 2008, dated 2013)
